Data as given in ChEMBL document CHEMBL4613217, “Synthesis, anti-plasmodial and cytotoxic evaluation of 1H-1,2,3-triazole/acyl hydrazide integrated tetrahydro-β-carboline-4-aminoquinoline conjugates” (Bioorg Med Chem Lett, 2020).

Legend:
[1] = test system: Plasmodium falciparum; assay: Antiplasmodial activity against chloroquine-resistant Plasmodium falciparum W2; assay type: functional, organism-based
[2] = test system: Vero; assay: Cytotoxicity against African green monkey Vero cells assessed as reduction in cell viability; assay type: cell-based; conditions: Chlorocebus sabaeus
[3] = Selectivity Index, ratio of IC50 for African green monkey Vero cells to IC50 for chloroquine-resistant Plasmodium falciparum W2; assay type: toxicity; conditions: read-out: Ratio IC50

C[C@@H]1NC(C(=O)NNC(=O)CNc2ccnc3cc(Cl)ccc23)Cc2c1[nH]c1ccccc21 (some centres not stated)
IC50 [1]: 5 µM

CCOC(=O)C1Cc2c([nH]c3ccccc23)[C@@H](C)N1Cc1cn(CCCNc2ccnc3cc(Cl)ccc23)nn1 (some centres not stated)
IC50 [1]: 1.37 µM

C[C@@H]1NC(C(=O)NNC(=O)CCCCCNc2ccnc3cc(Cl)ccc23)Cc2c1[nH]c1ccccc21 (some centres not stated)
IC50 [1]: 1.8 µM

O=C(NNC(=O)C1Cc2c([nH]c3ccccc23)CN1)c1ccc(Nc2ccnc3cc(Cl)ccc23)cc1 (configuration not stated)
IC50 [2]: 95.1 µM | IC50 [1]: 0.61 µM | selectivity ratio [3]: 156

C#CCN1Cc2[nH]c3ccccc3c2CC1C(=O)OCC (configuration not stated)
IC50 [1]: 4.3 µM

CCOC(=O)C1Cc2c([nH]c3ccccc23)[C@@H](C)N1Cc1cn(CCNc2ccnc3cc(Cl)ccc23)nn1 (some centres not stated)
IC50 [1]: 0.93 µM

O=C(CCCCCNc1ccnc2cc(Cl)ccc12)NNC(=O)C1Cc2c([nH]c3ccccc23)CN1 (configuration not stated)
IC50 [1]: 2.2 µM

CCOC(=O)C1Cc2c([nH]c3ccccc23)CN1Cc1cn(-c2ccnc3cc(Cl)ccc23)nn1 (configuration not stated)
IC50 [1]: 9.28 µM

C[C@@H]1NC(C(=O)NNC(=O)CCCNc2ccnc3cc(Cl)ccc23)Cc2c1[nH]c1ccccc21 (some centres not stated)
IC50 [1]: 3.4 µM

CCOC(=O)C1Cc2c([nH]c3ccccc23)CN1Cc1cn(CCCNc2ccnc3cc(Cl)ccc23)nn1 (configuration not stated)
IC50 [2]: 246 µM | IC50 [1]: 0.49 µM | selectivity ratio [3]: 496

CCOC(=O)C1Cc2c([nH]c3ccccc23)[C@@H](C)N1Cc1cn(-c2ccnc3cc(Cl)ccc23)nn1 (some centres not stated)
IC50 [1]: 4.02 µM

CCOC(=O)C1Cc2c([nH]c3ccccc23)CN1Cc1cn(CCNc2ccnc3cc(Cl)ccc23)nn1 (configuration not stated)
IC50 [2]: 268 µM | IC50 [1]: 0.86 µM | selectivity ratio [3]: 312

C[C@@H]1NC(C(=O)NNC(=O)CCNc2ccnc3cc(Cl)ccc23)Cc2c1[nH]c1ccccc21 (some centres not stated)
IC50 [1]: 2 µM

C[C@H]1NC(C(=O)NNC(=O)c2ccc(Nc3ccnc4cc(Cl)ccc34)cc2)Cc2c1[nH]c1ccccc21 (some centres not stated)
IC50 [2]: 103 µM | IC50 [1]: 1.21 µM | selectivity ratio [3]: 84.9

O=C(CCCNc1ccnc2cc(Cl)ccc12)NNC(=O)C1Cc2c([nH]c3ccccc23)CN1 (configuration not stated)
IC50 [1]: 3.1 µM

O=C(CCNc1ccnc2cc(Cl)ccc12)NNC(=O)C1Cc2c([nH]c3ccccc23)CN1 (configuration not stated)
IC50 [1]: 3.1 µM

C#CCN1C(C(=O)OCC)Cc2c([nH]c3ccccc23)[C@H]1C (some centres not stated)
IC50 [1]: 9 µM

O=C(CNc1ccnc2cc(Cl)ccc12)NNC(=O)C1Cc2c([nH]c3ccccc23)CN1 (configuration not stated)
IC50 [1]: 4.4 µM

O=C(O)c1ccc(Nc2ccnc3cc(Cl)ccc23)cc1
IC50 [1]: 8.6 µM
